In the supplement of paper PMC10307832:

What was measured:
XMD13-2 = compound: C1CC1C(=O)NC2=NNC3=C2C=CC(=C3)C4=CC(=CC=C4)C(=O)NC5CC5 [XMD13-2]; assay: relative viability (nuclei count vs DMSO), 5 days (fraction); higher = more cells survive
Method in brief: (§1)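 For viability, nuclei in each treated well were divided by nuclei in vehicle wells and the median across plates was taken. Lung cancer cell lines in 1536-well plates were pinned with five library-drug doses (not always all listed) spaced by √10, cultured 5 days without medium change, and imaged at 4× after Hoechst staining, with plates passing only at control CV below 25% and at least one doubling.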

Dasatinib = compound: Cc1nc(Nc2ncc(C(=O)Nc3c(C)cccc3Cl)s2)cc(N2CCN(CCO)CC2)n1 [Dasatinib]; assay: as above
Method in brief: as §1

Cell Line	relative viability (XMD13-2; 0.05 µM)	relative viability (XMD13-2; 0.1581 µM)	relative viability (XMD13-2; 0.5 µM)	relative viability (XMD13-2; 1.581 µM)	relative viability (XMD13-2; 5 µM)	relative viability (Dasatinib; 0.005 µM)	relative viability (Dasatinib; 0.01581 µM)	relative viability (Dasatinib; 0.05 µM)	relative viability (Dasatinib; 0.075 µM, anchor plate)	relative viability (Dasatinib; 0.1581 µM)	relative viability (Dasatinib; 0.5 µM)
201T	1.02	1.03	1.02	1	1.02	0.991	0.766	0.82	0.583	0.602	0.417
A549	1.28	1.02	1.06	0.963	0.962	0.989	0.85	0.914	–	0.626	0.346
A-427	1.12	0.921	1.01	0.904	0.744	0.983	0.889	0.811	0.698	0.634	0.623
ABC-1	1.02	0.873	1.01	0.745	0.472	0.905	0.862	0.785	0.641	0.564	0.654
BEN	1.07	1.01	0.992	0.874	0.933	0.776	0.552	0.487	0.322	0.423	0.376
CAL-12T	1.05	0.961	1.06	0.887	1.02	1.02	0.998	1.12	0.486	0.795	0.416
COR-L23	1.21	0.993	1.11	0.969	0.986	1.01	0.852	0.923	0.477	0.614	0.519
COR-L 105	1.25	1.08	0.911	0.947	0.858	0.847	0.692	0.625	0.386	0.39	0.326
Calu-6	1.05	1.08	1.07	0.99	1.04	0.895	0.766	0.712	–	0.627	0.554
ChaGo-K-1	1.02	0.99	1.04	1.03	0.93	0.967	0.976	0.897	0.597	0.859	0.686
EBC-1	1.07	1.09	1	0.858	0.508	1.03	0.893	0.894	–	0.831	0.736
EKVX	1.08	0.915	0.969	0.923	1.07	0.932	0.879	0.807	0.605	0.68	0.176
EMC-BAC-2	1.13	0.896	1.02	0.616	0.79	0.884	0.786	0.657	0.336	0.472	0.344
EPLC-272H	1.18	0.882	1.16	0.738	0.646	0.965	0.916	0.882	0.356	0.71	0.295
H3255	1.18	0.949	0.95	0.892	0.895	0.971	1	0.881	0.402	0.812	0.433
HARA	1.13	0.95	0.963	0.943	1.12	0.797	0.73	0.647	0.288	0.3	0.175

Cell Line	relative viability (XMD13-2; 0.05 µM)	relative viability (XMD13-2; 0.1581 µM)	relative viability (XMD13-2; 0.5 µM)	relative viability (XMD13-2; 1.581 µM)	relative viability (XMD13-2; 5 µM)	relative viability (Dasatinib; 0.005 µM)	relative viability (Dasatinib; 0.01581 µM)	relative viability (Dasatinib; 0.05 µM)	relative viability (Dasatinib; 0.075 µM, anchor plate)	relative viability (Dasatinib; 0.1581 µM)	relative viability (Dasatinib; 0.5 µM)
HCC-15	1.11	0.931	1.01	0.98	0.904	1.03	0.991	0.928	0.651	0.854	0.726
HCC-44	0.988	0.996	1.05	0.978	1.03	1.12	0.994	1.04	–	0.961	0.533
HCC-78	1.06	0.934	0.981	0.908	0.962	0.551	0.764	0.721	0.408	0.658	0.314
HCC-366	1.08	0.918	0.991	0.979	1.03	0.805	0.748	0.608	0.682	0.728	0.52
HCC-827	1.06	1.01	1.02	0.973	0.944	1.05	0.926	1.04	0.324	0.953	0.126
HOP-62	1.04	0.955	1.1	0.953	1.02	1.06	1	0.932	0.68	0.945	0.367
IA-LM	0.967	0.982	0.977	0.87	0.883	1.01	0.994	1	–	0.781	0.564
LC-2-ad	1.03	1.04	1.03	0.94	0.994	1	0.984	0.924	0.601	0.674	0.35
LCLC-97TM1	0.974	0.917	0.95	0.7	0.903	1.17	0.97	1.05	0.837	1	0.561
LCLC-103H	1.09	0.997	0.969	0.987	1.05	0.997	0.855	0.82	0.475	0.669	0.382
LK-2	1.24	0.904	1.05	0.915	0.966	0.943	0.569	0.587	0.311	0.297	0.257
LOU-NH91	1.12	0.979	0.965	0.85	1.15	0.839	0.893	0.724	0.558	0.587	0.422
LU99A	1.05	1.05	1.01	1.03	0.927	0.807	0.629	0.896	0.539	0.663	0.48
LXF-289	1.07	1.02	1.04	1.07	1.05	1.03	1.07	1.08	0.227	0.485	0.226
NCI-H23	1.04	0.907	1.04	0.801	1.07	0.923	0.857	0.858	0.866	0.6	0.482
